From patent US20170042899A1, “Use of Tetrahydrobiopterine Derivatives in the Treatment and Nutrition of Patients With Amino Acid Metabolic Disorders” (BioMarin Pharmaceutical Inc., priority 2002, published 2017)

Experiments:
[1] = tested on: persons with a deficiency in phenylalanine hydroxylase; experiment: Combined phenylalanine and tetrahydrobiopterine exposure or stress test (phenylalanine concentration in blood); assay type: in vivo, human; settings: for patients with a response to tetrahydrobiopterine: blood phenylalanine sank by at least 30% 15 hours after exposure
Source text: In order to research the therapeutic effectiveness of tetrahydrobiopterine, one carries out a combined phenylalanine tetrahydrobiopterine stress test for diagnostic and analyzes the effect in vivo by means of determining the [^13C] phenylalanine oxidation rate and 38 persons with a deficiency in phenylalanine hydroxylase prior to and subsequent to the administration of tetrahydrobiopterine derivatives. The response to tetrahydrobiopterine was associated with certain genotypes, and we localized mutations on the basis of the structural models of the phenylalanine hydroxylase monomer and the therefrom derived protein misfolding. We obtained the written consent of the families of 38 children, which suffered from various subset forms of hyperphenylalaninamie. The classification occurred depending upon the plasma phenylalanine concentration prior to treatment: less than 600 μmol/l, mild hyperphenylalaninamie, n=10, age 15 days through 10 years; 600-1200 μmol/l, mild, n=21, age 8 days through 17 years; greater than 1200 μmol, classical phenylketonurea, n=7, age 1 day through 9 years. A defect in this tetrahydrobiopterine biosynthesis or in the recycling of the tetrahydrobiopterine was ruled out by an analysis of the pterine value in urine and the dihydropteridine-reductase activity in erythrocytes. We examined seven patients during the newborn period and 31 as they were already older. Afflicted siblings (n=5) were likewise included in the study, since it is known that non-genetic factors influence the phenylalanine homeostasis. The uptake of phenylalanine was accomplished in that the patients were allowed to take a meal with 100 mg phenylalanine per kilogram body weight. One hour after the end of the meal the patients took 20 mg tetrahydrobiopterine per kilogram (Schircks Laboratories, Jona, Switzerland). The phenylalanine concentration in blood was determined by an electro spray ionization tandem mass spectroscopy—prior to the uptake of phenylalanine and prior to and subsequent to (at 4, 8 and 15 hours) provocation or exposure to tetrahydrobiopterine. During the test phase the newborns were fed with mothers milk, while the older children received a standardized protein supply (10 mg phenylalanine per kg) between six and eight hours after the exposure to tetrahydrobiopterine. The patients were classified as reacting to tetrahydrobiopterine if the phenylalanine concentration in the blood 15 hours after the exposure to tetrahydrobiopterine sank by at least 30% in comparison to the value prior to the intake of tetrahydrobiopterine.

[2] = tested on: persons with a deficiency in phenylalanine hydroxylase; experiment: In vivo analysis of L-[13C]phenylalanine oxidation (13CO2 breath test); design: species or system human
Source text: In order to research the therapeutic effectiveness of tetrahydrobiopterine, one carries out a combined phenylalanine tetrahydrobiopterine stress test for diagnostic and analyzes the effect in vivo by means of determining the [^13C] phenylalanine oxidation rate and 38 persons with a deficiency in phenylalanine hydroxylase prior to and subsequent to the administration of tetrahydrobiopterine derivatives. The response to tetrahydrobiopterine was associated with certain genotypes, and we localized mutations on the basis of the structural models of the phenylalanine hydroxylase monomer and the therefrom derived protein misfolding.
The tests were carried out after a four hour fast in small children and an overnight fast in older children. Overall 6 mg L-[1^−13C] phenylalanine (Euriostop, Paris, France) per kilogram body weight were taken in orally. The tracer was dissolved in a 25% dextrose solution (2 mg per milliliter). Subsequently breath samples were taken over a period of 180 minutes and stored in air-free glass pipes until analysis by means of isotope mass spectroscopy (deltaS, Thermoquest, Bremen). The recapture of carbon-13 in the breath samples was calculated, as described by Treacy et al, wherein a total carbon dioxide of 300 mmol per hour×[…] of body surface was assumed. The ^13CO2-production was represented as a cumulative percentage rate of the calculated dose against time. The validity of the results in the newborn could have been influenced by the nutrition or the fact that the collection of the breath sample is more difficult with them than with older children. […] In cross section, less than one (older children) and less than two (newborns) of 27 sequential ^13CO2 measurements, which were obtained during the 180 minutes of an individual test, were not capable of interpretation.
Patients with various clinical stages of illness achieved basile cumulative ^13CO2 recapture rates, which respectively reflected their individual rest phenylalanine oxidation capacity (classic phenylketonurea, average value 1.4%; mild phenylketonurea, 3.1%; mild hyperphenylalaninamie, 5.6%; the healthy comparison group 9.0%). […] The rise was more clearly pronounced in patients with a mild phenylketonurea than in patients with a mild hyperphenylalaninamie (FIG. 2A). […] This is associated therewith that with longer therapies, also in the cases of hyperphenylalaninamie derivative, improvement by tetrahydrobiopterine could be achieved.

[3] = tested on: children with mild phenylketonurea; experiment: Long time treatment with tetrahydrobiopterine replacing the phenylalanine poor diet; assay type: in vivo, human; settings: five children
Procedure: The families with five children aged from 4 to 14 years with mild phenylketonurea consented to a therapeutic test, in which the phenylalanine poor diet was replaced by an oral administration of tetrahydrobiopterine in daily doses between 7.1 and 10.7 mg/kg body weight. The treatment lasted 207±51.3 days (average±SD; length 166-263).

Serum residence time = settings: in vivo
[4] = tested on: patients with a lack of tetrahydrobiopterine; settings: more than 350 patients with a lack of tetrahydrobiopterine treated with the co-factor; cited from earlier work
[5] = a patient with classic phenylketonurea

C[C@H](O)[C@H](O)[C@H]1CNc2nc(N)[nH]c(=O)c2N1 [tetrahydrobiopterine, 5,6,7,8-tetrahydrobiopterine]
phenylalanine concentration in the blood after exposure ([1]; 23 of the 27 patients reacting to tetrahydrobiopterine): less than 200 μmol/l | patients in whom tetrahydrobiopterine significantly decreased the phenylalanine content in the blood and improved the phenylalanine oxidation ([1]; 27 of the 31 patients with mild hyperphenylalaninamie (n=10) or mild phenylketonurea (n=21)): 87% | phenylalanine concentration in blood, change [1, 5]: slight increase | patients satisfying the criteria of a strong response to tetrahydrobiopterine ([1]; classical phenylketonurea (n=7)): none | patients with a response to tetrahydrobiopterine ([1]; mild hyperphenylalaninamie): all ten | patients with a response to tetrahydrobiopterine ([1]; mild phenylketonurea): 17 of 21 | phenylalanine concentration in the blood after exposure ([1]; patients which did not react): exceeded 400 μmol/l | total 13CO2 recapture after treatment ([2]; 10 mg/kg body weight, 24 hours, patients which had responded to the stress test): rose significantly | persons reacting to tetrahydrobiopterine that achieved oxidation rates in a normal level ([2]; 27 persons reacting to tetrahydrobiopterine): 22 of the 27 | phenylalanine oxidation rate, change [2, 5]: improvement | patients which did not respond exhibiting a mild rise in phenylalanine oxidation ([2]; after short time therapy with tetrahydrobiopterine): 8 of 11 | phenylalanine concentration in blood during the pure cofactor treatment ([3]; diet replaced by tetrahydrobiopterine): 378 ± 173 µmol/L | daily phenylalanine tolerance with treatment (range) ([3]; oral 7.1-10.7 mg/kg body weight daily): 17.9-90 mg/kg body weight | daily phenylalanine tolerance with treatment (average±SD) ([3]; oral 7.1-10.7 mg/kg body weight daily, 207±51.3 days): 61.4±27.9 mg/kg body weight | serum residence time (Serum residence time): approximately 8 hours

C[C@H](O)[C@H](O)[C@H]1CNc2[nH]c(N)nc(=O)c2N1.Cl.Cl [BIOPTEN, sapropterinhydrochloride]
dose dependent undesired side effects [4]: interference with sleep, polyurea and thin stool
